Results as given in ChEMBL document CHEMBL2046319, “Synthesis and cytotoxicity of lupane-type triterpenoid glyceryl esters” (Bioorg Med Chem Lett, 2012).

Tests used:
[1] = Cytotoxicity against human WS1 cells by Alamar Blue dye assay; type: cell-based
DLD-1 = assay: Cytotoxicity against human DLD1 cells by Alamar Blue dye assay; type: functional, cell-based
A549 = assay: Cytotoxicity against human A549 cells by Alamar Blue dye assay; type: functional, cell-based

SMILES	IC50 [1] [µM]	IC50 (DLD-1) [µM]	IC50 (A549) [µM]
C=C(C)[C@@H]1CC[C@]2(COC(C)=O)CC[C@]3(C)[C@H](CC[C@@H]4[C@@]5(C)CC[C@H](OC(=O)[C@H]6COC(C)(C)O6)C(C)(C)[C@@H]5CC[C@]43C)[C@@H]12	> 100	> 100	> 100
C=C(C)[C@@H]1CC[C@]2(COC(=O)[C@H]3COC(C)(C)O3)CC[C@]3(C)[C@H](CC[C@@H]4[C@@]5(C)CC[C@H](OC(=O)[C@H]6COC(C)(C)O6)C(C)(C)[C@@H]5CC[C@]43C)[C@@H]12	> 100	> 100	> 100
C=C(C)[C@@H]1CC[C@]2(COC(=O)[C@H](O)CO)CC[C@]3(C)[C@H](CC[C@@H]4[C@@]5(C)CC[C@H](OC(C)=O)C(C)(C)[C@@H]5CC[C@]43C)[C@@H]12	16	16	16.3
C=C(C)[C@@H]1CC[C@]2(C(=O)OC[C@H]3COC(C)(C)O3)CC[C@]3(C)[C@H](CC[C@@H]4[C@@]5(C)CC[C@H](OC(C)=O)C(C)(C)[C@@H]5CC[C@]43C)[C@@H]12	> 100	> 100	> 100
C=C(C)[C@@H]1CC[C@]2(COC(=O)[C@H]3COC(C)(C)O3)CC[C@]3(C)[C@H](CC[C@@H]4[C@@]5(C)CC[C@H](OC(C)=O)C(C)(C)[C@@H]5CC[C@]43C)[C@@H]12	> 100	> 100	> 100
C=C(C)[C@@H]1CC[C@]2(C(=O)OC[C@H]3COC(C)(C)O3)CC[C@]3(C)[C@H](CC[C@@H]4[C@@]5(C)CC[C@H](O)C(C)(C)[C@@H]5CC[C@]43C)[C@@H]12	43	96	30
C=C(C)[C@@H]1CC[C@]2(C(=O)OC[C@H](O)CO)CC[C@]3(C)[C@H](CC[C@@H]4[C@@]5(C)CC[C@H](O)C(C)(C)[C@@H]5CC[C@]43C)[C@@H]12	13.7	23	16
C=C(C)[C@@H]1CC[C@]2(C(=O)OC[C@H](O)CO)CC[C@]3(C)[C@H](CC[C@@H]4[C@@]5(C)CC[C@H](OC(C)=O)C(C)(C)[C@@H]5CC[C@]43C)[C@@H]12	15	18	16.5
C=C(C)[C@@H]1CC[C@]2(COC(C)=O)CC[C@]3(C)[C@H](CC[C@@H]4[C@@]5(C)CC[C@H](OC(=O)[C@H](O)CO)C(C)(C)[C@@H]5CC[C@]43C)[C@@H]12	15	16	15.5
C=C(C)[C@@H]1CC[C@]2(COC(=O)[C@H](O)CO)CC[C@]3(C)[C@H](CC[C@@H]4[C@@]5(C)CC[C@H](OC(=O)[C@H](O)CO)C(C)(C)[C@@H]5CC[C@]43C)[C@@H]12	40	39	31
